Test results from publication PMC5085154 (2016).

What was measured:
[1] = tested on: Pu27 (DNA, G4) TGGGGAGGGTGGGGAGGGTGGGGAAGG; experiment: PCR stop assay; conditions: apparent; Taq polymerase, Pu27rev reverse primer, 10 cycles, 58°C annealing; gel densitometry
[2] = tested on: FPu18T (Pu18) (DNA, G4) AGGGTGGGGAGGGTGGGG; experiment: FRET melting; conditions: K+ (KCl, concentration not given); pH 7.2; Tm with ligand, "up to", not a shift; compound 2 μM (from mixing volumes), DNA 0.2 μM
[3] = tested on: HTC21 (DNA, i motif) CCCTAACCCTAACCCTAACCC; experiment: competition dialysis; conditions: Na+ 100 mM; 10 mM Tris-HCl, pH 7.2, room temperature; 1 μM compound; bound amount in figure
HT-7 (DNA, G4) TTAGGGT = experiment: competition dialysis; conditions: Na+ 100 mM; 10 mM Tris-HCl, pH 7.2, room temperature; 1 μM compound; bound amount in figure
[4] = tested on: dA21 (DNA, single strand) AAAAAAAAAAAAAAAAAAAAA; experiment: competition dialysis; conditions: Na+ 100 mM; 10 mM Tris-HCl, pH 7.2, room temperature; 1 μM compound; bound amount in figure
[5] = tested on: HTds (HTC21:HTG21) (DNA, duplex) GGGTTAGGGTTAGGGTTAGGG/CCCTAACCCTAACCCTAACCC; experiment: competition dialysis; conditions: Na+ 100 mM; 10 mM Tris-HCl, pH 7.2, room temperature; 1 μM compound; bound amount in figure
[6] = tested on: 2(dT21):dA21 (DNA, triplex) AAAAAAAAAAAAAAAAAAAAA/TTTTTTTTTTTTTTTTTTTTT; experiment: competition dialysis; conditions: Na+ 100 mM; 10 mM Tris-HCl, pH 7.2, room temperature; 1 μM compound; bound amount in figure
[7] = tested on: Pu27 (DNA, G4) TGGGGAGGGTGGGGAGGGTGGGGAAGG; experiment: CD titration; conditions: K+ 100 mM; 10 mM Tris-HCl, pH 7.2; 5 μM DNA; 0-5 mol equiv compound
[8] = tested on: Pu27 (DNA, G4) TGGGGAGGGTGGGGAGGGTGGGGAAGG; experiment: competition dialysis; conditions: Na+ 100 mM; 10 mM Tris-HCl, pH 7.2, room temperature; 1 μM compound; strongest of set; bound amount in figure
[9] = tested on: HTG21mu (DNA, single strand) GAGTTAGAGTTAGAGTTAGAG; experiment: competition dialysis; conditions: Na+ 100 mM; 10 mM Tris-HCl, pH 7.2, room temperature; 1 μM compound; bound amount in figure
[10] = tested on: Pu27 (DNA, G4) TGGGGAGGGTGGGGAGGGTGGGGAAGG; experiment: CD spectroscopy; conditions: none (salt-free); 10 mM Tris-HCl, pH 7.2; 5 μM DNA; induces parallel G-quadruplex
[11] = tested on: dT21 (DNA, single strand) TTTTTTTTTTTTTTTTTTTTT; experiment: competition dialysis; conditions: Na+ 100 mM; 10 mM Tris-HCl, pH 7.2, room temperature; 1 μM compound; bound amount in figure
[12] = tested on: HTG21 (DNA, G4) GGGTTAGGGTTAGGGTTAGGG; experiment: competition dialysis; conditions: Na+ 100 mM; 10 mM Tris-HCl, pH 7.2, room temperature; 1 μM compound; bound amount in figure

IC50 [1]: 2130 nM
Tm [2]: 77.5 °C
binding [3]: yes
binding (HT-7 (DNA, G4) TTAGGGT): yes
binding [4]: weak
binding [5]: weak
binding [6]: weak
binding [7]: yes
binding [8]: yes
binding [9]: weak
binding [10]: yes
binding [11]: weak
binding [12]: yes
SMILES: CN(C)CCCNCCC(=O)Nc1ccc(C(=O)Nc2cc(Cl)ccc2-c2nc(NCCCN(C)C)c3ccccc3n2)cc1
